Data on two molecules can be found in ChEMBL document CHEMBL5728586, “Substituted 6-azabenzimidazole compounds” (2021).

The target of this test is Mitogen-activated protein kinase kinase kinase kinase 1 (Homo sapiens, UniProt Q92918). Description: Enzymatic Activity Assay: Recombinant HPK1 kinase domain produced via baculovirus infection of insect cells was obtained from Proteros (Proteros Biostructures #PR-0322) and was pre-activated in the presence of 2 mM ATP (Sigma-Aldrich, cat #GE27-2056-01) and 2 mM magnesium chloride for 16 hours at 4° C. The protein reaction mixture was then loaded to a desalting column (Thermo Fisher Scientific, Cat #89889) to remove excess ATP. HPK1 was eluted with buffer containing 20 mM Tris (2-Amino-2-(hydroxymethyl)propane-1,3-diol) pH 8.0, 150 mM NaCl, 2 mM dithiothreitol and 5% glycerol, and was frozen at −80° C. for later use. HPK1 dual phosphorylation was confirmed by mass spectrometry.Ten nanoliters of test compounds dissolved in DMSO at various concentrations were dispensed into a 384-well ProxiPlate (PerkinElmer #6008289). Five microliters of a solution of recombinant HPK1 diluted in HPK1 kinase assay buffer (50 mM BES [N,N-Bis(2-hydroxyethyl)-2-aminoethanesulfonic acid], pH 7.0; 10 mM magnesium chloride; 0.01% Triton X-100; 1 mM dithiothreitol; 0.01% bovine serum albumin; 0.1 mM sodium orthovanadate) was added to the compound-containing plate and was incubated for 15 minutes at 25° C. Five microliters of a mixture of ATP (Sigma-Aldrich #A6559) and peptide substrate STK S1 (Cisbio #61ST1BLC) diluted in HPK1 kinase assay buffer was then added to start the reaction. […].
Chain of Mitogen-activated protein kinase kinase kinase kinase 1 (Q92918 whole entry, the tested form may be a part): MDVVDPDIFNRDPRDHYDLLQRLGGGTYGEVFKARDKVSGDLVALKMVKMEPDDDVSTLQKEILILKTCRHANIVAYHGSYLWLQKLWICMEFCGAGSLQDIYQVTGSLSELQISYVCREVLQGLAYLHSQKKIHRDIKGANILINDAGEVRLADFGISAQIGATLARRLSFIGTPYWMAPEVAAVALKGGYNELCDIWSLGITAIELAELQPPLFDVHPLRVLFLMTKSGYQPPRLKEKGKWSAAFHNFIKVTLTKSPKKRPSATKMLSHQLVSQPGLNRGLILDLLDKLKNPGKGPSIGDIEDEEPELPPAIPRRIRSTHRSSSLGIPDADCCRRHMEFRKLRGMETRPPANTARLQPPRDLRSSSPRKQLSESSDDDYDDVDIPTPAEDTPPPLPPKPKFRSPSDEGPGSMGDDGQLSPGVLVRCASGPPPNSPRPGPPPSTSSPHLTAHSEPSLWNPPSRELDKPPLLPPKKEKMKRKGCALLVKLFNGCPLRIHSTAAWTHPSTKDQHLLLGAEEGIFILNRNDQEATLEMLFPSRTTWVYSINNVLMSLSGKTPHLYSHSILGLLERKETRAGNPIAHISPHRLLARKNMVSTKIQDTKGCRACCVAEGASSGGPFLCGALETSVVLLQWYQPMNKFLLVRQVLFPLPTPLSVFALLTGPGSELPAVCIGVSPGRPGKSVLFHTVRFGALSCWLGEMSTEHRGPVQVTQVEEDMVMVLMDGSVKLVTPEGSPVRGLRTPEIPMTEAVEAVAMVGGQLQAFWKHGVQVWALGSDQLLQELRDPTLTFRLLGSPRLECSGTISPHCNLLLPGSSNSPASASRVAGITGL

As to `CC(C)n1cnc2cc(-c3ccc4c(c3)N([C@H]3C[C@@H](N5CCC(C)(C)C5)C3)C(=O)C43CCN(C(=O)[C@@H]4OCC[C@@H]4C)CC3)nc(Nc3ccncc3F)c21`, the IC50 worked out at 0.3 nM.

As to `CC(C)n1cnc2cc(-c3ccc4c(c3)N([C@H]3C[C@@H](N5CCC(C)(C)C5)C3)C(=O)C43CCN(C(=O)[C@H]4CC[C@@H](C)O4)CC3)nc(Nc3ccncc3F)c21`, the IC50 turned out to be 0.2 nM.

Usually IC50 stands for the midpoint of a concentration-inhibition curve.
